Data from PMC8097418, “In Vitro and In Vivo Antibacterial Activities of a Novel Quinolone Compound, OPS-2071, against Clostridioides difficile” (Antimicrobial Agents and Chemotherapy, 2021).
Converted amounts (≈) assume the structure as drawn. Like-named read-outs stand apart in the source and are kept apart here.

How the values were obtained:
[1] = tested on: 54 clinically isolated C. difficile strains; assay: MIC by agar dilution against 54 clinically isolated strains; format: cell-based, Clostridioides difficile; conditions: for MIC90 / MIC50: Clostridioides difficile, 54 clinically isolated C. difficile strains; for MIC50: read-out: MIC50
Experimental: (§1) MICs obtained using the agar dilution method were determined visually as described for the CLSI method ([41], [42]). MICs obtained using the broth dilution method were determined visually based on the CLSI method except for using Gifu anaerobic medium (GAM) broth instead of supplemented Brucella broth ([41], [42]).

[2] = tested on: hypervirulent and nonhypervirulent strains of C. difficile (62 strains); assay: MIC distribution against 20 hypervirulent and 42 nonhypervirulent strains; format: cell-based, Clostridioides difficile
[3] = tested on: 10 clinical isolates of C. difficile; assay: MIC (broth dilution) and MBC testing, 10 clinical isolates; format: cell-based, Clostridioides difficile; conditions: for MBC Range: >99.9% reduction within 48 h; for MIC90 / MBC: Clostridioides difficile; for MBC: read-out: MBC90
Experimental: In this test, MIC testing was performed using the broth dilution method as recommended in the CLSI ([41]). After the MICs were determined, 10 μl of the bacterial suspension from the MIC test tube was inoculated onto agar plates and incubated at 37°C. The bacterial colonies were then counted and bacterial numbers were calculated. The MBC was considered to be the lowest concentration of the antibiotics that prevented growth and reduced the inoculum by >99.9% within 48 h, irrespective of counts of survivors at higher antibiotic concentrations.

C. difficile ATCC 700057 [4] = assay: MIC by broth dilution (GAM broth); format: cell-based, Clostridioides difficile
Experimental: as §1

C. difficile ATCC 700057 [5] = assay: Killing kinetics (time-kill curves); format: cell-based, Clostridioides difficile; conditions: time-kill, up to 48 h
Experimental: The test tubes were incubated for 48 h. The CFU/ml values of the bacterial suspensions were calculated at 0, 2, 4, 6, 24, and 48 h by culturing 0.1-ml samples of serial 10-fold dilutions on GAM agar plates at 37°C under anaerobic conditions and then counting the number of growing colonies. The CFU/ml value at each time point is from one sample of datum.

C. difficile ATCC 700057 [6] = assay: MIC by agar dilution (CLSI) against quality control strain; format: cell-based, Clostridioides difficile
Experimental: as §1

C. difficile ATCC 700057 [7] = format: cell-based, Clostridioides difficile
C. difficile ATCC 700057 [8] = assay: Mutant prevention concentration; format: cell-based, Clostridioides difficile; conditions: approximately 10^10 CFU, 3 days
Experimental: The mutant prevention concentration was measured by plating approximately 10^10 CFU of C. difficile ATCC 700057 onto a GAM agar plate containing the test agent. Inoculated plates were incubated for 3 days, and the MIC for each antibiotic that prevented the growth of colonies was determined using the agar dilution method as described by the CLSI ([41]). The MIC values of grown colonies were compared to determine which bacteria were resistant. The MPC was defined as the lowest concentration that prevented the growth of resistant bacteria.

C. difficile ATCC 700057 [9] = assay: Postantibiotic effect (PAE); format: cell-based, Clostridioides difficile; conditions: for Postantibiotic effect: 1 h exposure
Experimental: C. difficile ATCC 700057 was cultured in GAM agar and adjusted in GAM broth to approximately 10^6 CFU/ml. The bacterial suspensions were preincubated at 37°C for 1 h. […] After preincubation, test and reference solutions were added to each bacterial suspension in a test tube, and the suspensions were cultured for 1 h. After exposure to the test compounds, bacterial suspensions were washed with GAM broth and cultured for 6 h. […] The PAE was defined according to Craig and Gudmundsson as PAE = T − C, where T is the time required for the viable counts of the exposed bacteria to increase by 1 log10 above the counts observed immediately after washing, and C is the corresponding time for the antibiotic unexposed controls ([44]).

C. difficile ATCC 43255 [10] = assay: In vivo hamster model of C. difficile infection; design: species or system golden Syrian hamsters
Experimental: C. difficile ATCC 43255 was cultured on GAM agar, and a bacterial suspension was prepared in saline ([26]). […] Hamsters were infected using oral gavage with 0.5 ml of suspension containing approximately 10^6 CFU of C. difficile (day −1). The next day, the animals were administered clindamycin phosphate (0.2 mg/ml in water) by oral gavage at a dose of 5 ml/kg of body weight, for a final dose of 1 mg/kg (day 0). The animals were allocated to the test groups using a stratified randomization method based on the body weight of each infected animal. The test compounds were administered by oral gavage once daily for 5 days (OPS-2071, 0.008 to 1 mg/kg; fidaxomicin, 0.04 mg/kg to 5 mg/kg; vancomycin, 0.04 to 5 mg/kg [5-fold dilution]). Infected control animals were administered 5% (wt/vol) gum arabic solution by oral gavage. […] The cecal contents of dead animals were tested for toxin A and toxin B using C.Diff Quik Chek Complete (Abbott Diagnostics Medical Co., Ltd., Tokyo, Japan) to confirm that the death of the animal was due to CDI.
The statistical significance of OPS-2071, fidaxomicin, and vancomycin treatment was analyzed at all doses against vehicle. Survival curves were estimated for each group using the Kaplan-Meier method. Differences in survival homogeneity in each group were evaluated with a log-rank test with Dunnett-type (two-sided) comparison.

C. difficile ATCC 43255 [11] = assay: MIC against the infection strain; format: cell-based, Clostridioides difficile
C. difficile ATCC 700057 [12] = assay: Effect of pH on MIC (agar dilution); format: cell-based, Clostridioides difficile; conditions: Clostridioides difficile
[13] = cited from earlier work
[14] = molecular target: DNA gyrase of C. difficile (Clostridioides difficile, UniProt Q18C89+Q18C90); assay: biochemical
DNA gyrase of C. difficile, sequence (Q18C90 entry or part of it): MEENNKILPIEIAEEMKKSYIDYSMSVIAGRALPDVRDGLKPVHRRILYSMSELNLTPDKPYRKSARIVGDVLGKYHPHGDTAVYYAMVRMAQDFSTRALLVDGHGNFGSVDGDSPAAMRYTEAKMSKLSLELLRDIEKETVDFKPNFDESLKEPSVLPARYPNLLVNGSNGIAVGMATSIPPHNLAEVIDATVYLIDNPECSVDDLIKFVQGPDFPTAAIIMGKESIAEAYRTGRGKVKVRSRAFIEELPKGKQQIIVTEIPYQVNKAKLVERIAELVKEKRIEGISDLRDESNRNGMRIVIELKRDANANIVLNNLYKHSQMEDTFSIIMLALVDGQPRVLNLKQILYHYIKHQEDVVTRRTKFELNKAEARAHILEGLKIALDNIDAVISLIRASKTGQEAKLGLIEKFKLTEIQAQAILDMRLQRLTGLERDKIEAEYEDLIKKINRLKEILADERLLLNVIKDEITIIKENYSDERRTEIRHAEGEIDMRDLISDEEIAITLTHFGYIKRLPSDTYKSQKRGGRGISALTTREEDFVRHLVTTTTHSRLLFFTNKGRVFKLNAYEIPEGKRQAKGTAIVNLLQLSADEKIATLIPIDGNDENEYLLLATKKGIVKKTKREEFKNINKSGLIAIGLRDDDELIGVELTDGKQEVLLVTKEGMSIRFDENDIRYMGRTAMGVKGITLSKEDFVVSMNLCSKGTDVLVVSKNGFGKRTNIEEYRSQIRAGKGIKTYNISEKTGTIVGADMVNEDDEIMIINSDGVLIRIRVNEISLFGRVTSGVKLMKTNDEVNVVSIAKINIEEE
DNA gyrase of C. difficile, sequence (Q18C89 entry or part of it): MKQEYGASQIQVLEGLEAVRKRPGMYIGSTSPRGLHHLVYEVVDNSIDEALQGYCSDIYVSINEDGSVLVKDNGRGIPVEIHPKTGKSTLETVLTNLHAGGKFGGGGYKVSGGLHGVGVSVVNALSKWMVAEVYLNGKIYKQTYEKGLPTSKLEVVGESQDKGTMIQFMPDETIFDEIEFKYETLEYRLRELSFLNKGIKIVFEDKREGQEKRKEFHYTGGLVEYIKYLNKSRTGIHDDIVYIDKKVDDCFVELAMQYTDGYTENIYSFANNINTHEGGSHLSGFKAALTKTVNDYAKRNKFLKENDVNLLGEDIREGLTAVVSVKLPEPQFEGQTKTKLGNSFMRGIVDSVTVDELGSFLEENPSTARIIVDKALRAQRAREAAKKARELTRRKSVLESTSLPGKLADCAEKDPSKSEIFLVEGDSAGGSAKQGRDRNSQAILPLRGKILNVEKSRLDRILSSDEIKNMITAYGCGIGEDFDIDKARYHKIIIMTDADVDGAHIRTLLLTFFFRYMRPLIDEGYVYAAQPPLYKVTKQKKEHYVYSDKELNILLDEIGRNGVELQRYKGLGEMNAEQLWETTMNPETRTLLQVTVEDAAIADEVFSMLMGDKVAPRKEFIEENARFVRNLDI

[15] = Clostridioides difficile, hypervirulent strains (n = 20)
[16] = Clostridioides difficile, nonhypervirulent strains (n = 42)
[17] = nonhypervirulent strains (n = 42)
[18] = 10 clinical isolates, broth dilution
[19] = Clostridioides difficile, ATCC700057, broth dilution, retested for the time-kill assay, read-out: MIC

For `Cc1ncc([N+](=O)[O-])n1CCO` [Metronidazole], which MIC90 [1] is on record?
Its MIC90 is 4 mg/L (≈ 23.4 µM).

And the MIC50 [1]?
Its MIC50 is 2 mg/L (≈ 11.7 µM).

What about the MIC50 [2, 15] of the same compound?
Its MIC50 is 0.5 mg/L (≈ 2.92 µM).

What about the MIC90 [2, 15] of the same compound?
The MIC90 was 1 mg/L (≈ 5.84 µM).

What about the MIC50 [2, 16] of the same compound?
The MIC50 was 0.25 mg/L (≈ 1.46 µM).

And the MIC90 [2, 16]?
Its MIC90 is 0.5 mg/L (≈ 2.92 µM).

What about the “Cumulative percentage of strains” value ([2]; Non-hyp (n = 42), MIC […] μg/ml) of the same compound?
Its value is 100%.

And the MIC range ([2]; hypervirulent strains (n = 20))?
Its MIC range is 0.25 to 16 mg/L.

What about the MIC range [2, 17] of the same compound?
The MIC range was 0.25 to 1 mg/L.

What about the “MBC Range” value ([3]; 10 clinical isolates) of the same compound?
The value was 1 to 4 mg/L.

What about the “MIC range” value [3, 18] of the same compound?
The value was 1 to 4 mg/L.

What about the MIC90 ([3]; 10 clinical isolates, broth dilution, read-out: MIC90) of the same compound?
The MIC90 was 4 mg/L (≈ 23.4 µM).

And the MBC ([3]; 10 clinical isolates)?
Its MBC is 4 mg/L (≈ 23.4 µM).

And the MIC (C. difficile ATCC 700057 [4]; [19])?
The MIC was 0.5 mg/L (≈ 2.92 µM).

What about the “concentration needed for an undetectable level to be reached” value (C. difficile ATCC 700057 [5]) of the same compound?
The value was “over 2 fold MIC”.

For `CN[C@H](CC(C)C)C(=O)N[C@H]1C(=O)N[C@@H](CC(N)=O)C(=O)N[C@H]2C(=O)N[C@H]3C(=O)N[C@H](C(=O)N[C@H](C(=O)O)c4cc(O)cc(O)c4-c4cc3ccc4O)[C@H](O)c3ccc(c(Cl)c3)Oc3cc2cc(c3O[C@@H]2O[C@H](CO)[C@@H](O)[C@H](O)[C@H]2O[C@H]2C[C@](C)(N)[C@H](O)[C@H](C)O2)Oc2ccc(cc2Cl)[C@H]1O` [Vancomycin], which MIC90 [1] is on record?
Its MIC90 is 4 mg/L (≈ 2.76 µM).

What about the MIC50 [1] of the same compound?
Its MIC50 is 2 mg/L (≈ 1.38 µM).

And the MIC50 ([2]; Clostridioides difficile, hypervirulent strains (n = 20), read-out: MIC50)?
Its MIC50 is 1 mg/L (≈ 0.69 µM).

What about the MIC90 ([2]; Clostridioides difficile, hypervirulent strains (n = 20), read-out: MIC90) of the same compound?
The MIC90 was 1 mg/L (≈ 0.69 µM).

What about the MIC90 ([2]; Clostridioides difficile, nonhypervirulent strains (n = 42), read-out: MIC90) of the same compound?
The MIC90 was 2 mg/L (≈ 1.38 µM).

What about the MIC range ([2]; hypervirulent strains (n = 20)) of the same compound?
Its MIC range is 1 to 2 mg/L.

What about the MIC50 [2, 17] of the same compound?
The MIC50 was 1 mg/L (≈ 0.69 µM).

And the MIC range [2, 17]?
The MIC range was 0.5 to 4 mg/L.

What about the “MBC Range” value ([3]; 10 clinical isolates) of the same compound?
The value was 4 to 8 mg/L.

What about the “MIC range” value [3, 18] of the same compound?
The value was 2 to 4 mg/L.

What about the MIC90 [3] of the same compound?
The MIC90 was 4 mg/L (≈ 2.76 µM).

And the MBC [3]?
Its MBC is 8 mg/L (≈ 5.52 µM).

What about the MIC (C. difficile ATCC 700057 [6]; Clostridioides difficile, ATCC700057, quality control strain ATCC 700057, CLSI method, read-out: MIC) of the same compound?
The MIC was 2 mg/L (≈ 1.38 µM).

And the MIC (C. difficile ATCC 700057 [6]; agar dilution, determined for the spontaneous resistance assay)?
Its MIC is 2 mg/L (≈ 1.38 µM).

And the MIC (C. difficile ATCC 700057 [4]; [19])?
Its MIC is 4 mg/L (≈ 2.76 µM).

What about the MIC (C. difficile ATCC 700057 [4]; broth method, determined for the PAE assay) of the same compound?
The MIC was 4 mg/L (≈ 2.76 µM).

What about the “concentration needed for an undetectable level to be reached” value (C. difficile ATCC 700057 [5]) of the same compound?
The value was “over 2 fold MIC”.

And the “Frequency of spontaneous resistance” value (C. difficile ATCC 700057 [7]; 4× MIC)?
The value was <9.17 × 10^–9.

What about the “Frequency of spontaneous resistance” value (C. difficile ATCC 700057 [7]; 16× MIC) of the same compound?
Its value is <9.17 × 10^–9.

What about the “Frequency of spontaneous resistance” value (C. difficile ATCC 700057 [7]; 64× MIC) of the same compound?
The value was <9.17 × 10^–9.

What about the “mutant prevention concentration (MPC)” value (C. difficile ATCC 700057 [8]) of the same compound?
The value was 8 µg/mL.

And the “PAEs at 4- and 8-fold the MIC” value (C. difficile ATCC 700057 [9]; 4- and 8-fold the MIC)?
Its value is 1.03 to 1.25 h.

And the Postantibiotic effect (C. difficile ATCC 700057 [9]; 4× MIC)?
Its Postantibiotic effect is 1.03 h.

What about the Postantibiotic effect (C. difficile ATCC 700057 [9]; 8× MIC) of the same compound?
Its Postantibiotic effect is 1.25 h.

What about the “50% effective dose (ED50)” value (C. difficile ATCC 43255 [10]; survival on day 20, oral once daily for 5 days, probit method) of the same compound?
The value was 1.22 mg/kg/day.

And the “dosages with significant efficacy compared with vehicle control” value (C. difficile ATCC 43255 [10]; survival, log-rank test)?
The value was ≥ 1 mg/kg.

And the MIC (C. difficile ATCC 43255 [11])?
Its MIC is 2 mg/L (≈ 1.38 µM).

And the MIC (C. difficile ATCC 700057 [12]; ATCC700057, pH 6)?
Its MIC is 2 mg/L (≈ 1.38 µM).

What about the MIC (C. difficile ATCC 700057 [12]; ATCC700057, pH 7) of the same compound?
The MIC was 2 mg/L (≈ 1.38 µM).

What about the MIC (C. difficile ATCC 700057 [12]; ATCC700057, pH 8) of the same compound?
Its MIC is 2 mg/L (≈ 1.38 µM).

What about the oral bioavailability [13] of the same compound?
Its oral bioavailability is < 10%.

Which “activity against C. difficile isolates” value ([1]; 54 clinical isolates) does the source give for `C[C@H]1COc2c(N3CCN(C)CC3)c(F)cc3c(=O)c(C(=O)O)cn1c23` [Levofloxacin] here?
The value was “inactive”.

What about the MIC90 [1] of the same compound?
Its MIC90 is > 128 mg/L.

What about the MIC50 [1] of the same compound?
Its MIC50 is 128 mg/L (≈ 354 µM).

What about the IC50 [14] of the same compound?
Its IC50 is 31.8 µM.
